Experimental data reported in patent US20180085371A1, “COMBINATION OF PANOBINOSTAT AND RUXOLITINIB IN THE TREATMENT OF CANCER SUCH AS A MYELOPROLIFERATIVE NEOPLASM” (Novartis AG, priority 2011, published 2018).
Several values for one entry are separate records, joined by “and”; a condition that tells them apart may be missing. Equal values may be shown once. Read-outs that look alike come from different tables or passages of the source.

Experiments:
[1] = PK analysis 2 hours post-therapy, Example A (blood and tissue levels); type: in vivo, mouse; conditions: mean; for BM level 2 hr post-therapy: BM levels to be taken with caution
Procedure: 2 hours after last dose for Compound A;
2 hours after last dose for Compound B; • Spleen weight is recorded at sacrifice. • Samples collected and snap frozen in liquid nitrogen and then kept at −80° C. until analysis: • spleen, BM, blood and liver for PK analysis • spleen for PD marker analysis (p-STATS (Compound A) and protein acetylation (Compound B)), • sternum for PD marker analysis (p-STATS (Compound A).
(§1) Concentrations of Compound A and Compound B in plasma and tissues were determined simultaneously by an UPLC/MS-MS assay. Tissues were homogenized in an equal volume of HPLC-Water (Water for chromatography, Merck) using the Fast Prep®-24 system (M.P. Biomedicals, Irvine, Calif., USA). Following addition of 25 μl of internal standard mixture (1 μg/ml) to analytical aliquots (25 μl) of blood or tissues homogenate, the proteins were precipitated by the addition of 200 μl acetonitrile. The supernatant were transferred in a fresh vial. After evaporation to dryness the samples were re-dissolved in 60 μl acetonitrile/water (1/1 v/v). An aliquot (5 μl) of this solution was separated on a ACQUITY UPLC BEH C18 column (Waters™ 1.7 μm particle size, 2.1×50 mm) with a mobile phase consisting of a mixture of 0.1% formic acid in water (solvent A) and 0.1% formic acid in acetonitrile (solvent B). Gradient programming was used with a flow rate of 600 μl/min. After equilibration with 95% solvent A, 5 μl of sample was injected. Following a latency period of 0.25 min., the sample was eluted with a linear gradient of 5-100% solvent B over a period of 0.65 minutes followed by a 0.35 min. hold. The column was prepared for the next sample by re-equilibrating over 0.25 min. to the starting conditions. The column eluent was directly introduced into the ion source of the triple quadrupole mass spectrometer TQDTM (Waters Corporation, Milford, Mass., USA) controlled by Masslynx™ 4.1 software. Electrospray positive ionization (ESI+) multiple reaction monitoring was used for the MS/MS detection of the analyte. Precursor to product ion transition of 307.0→m/z 186.0 for Compound A was used. Simultaneously precursor to product ion transition of 350.1→m/z 142.9 for Compound B was recorded. The limit of quantification (LOQ) for both compounds was set to 9 ng/ml and 9 ng/g for plasma and tissues, respectively (CV and overall bias less than 30%). Regression analysis and further calculations were performed using QuanLynx™ 4.1 (Micromass) and Excel™ 2007 (Microsoft). Concentrations of unknown samples were back-calculated based on the peak area ratios of analyte/IS from a calibration curve constructed using calibration samples spiked in blank blood or tissue obtained from animals treated with vehicle.

[2] = Stability of dosing solution at room temperature; type: physicochemical
Procedure: Compound B was administered as the lactate salt by intraveneous or intraperitoneal injection. The lactic salt of Compound B was formulated in isotonic D5W (5% Dextrose; B. Braun, Lot 395147) at a concentration of 1.5 mg/ml, 1 mg/ml and 0.5 mg/ml, respectively. The solution was stable for up to 10 days at room temperature. Treatment was given 3 times a week at a volume of 10 ml/kg. The final equivalent free-base doses were respectively 11.90, 7.94 and 3.97 mg/kg. In the figures, these doses are reported as whole values.
The mono-phosphate salt of Compound A was formulated in 0.5% HPMC (Pharmacoat 603, Dow Chemical Plaqueline, USA) at a concentration of 7.9 mg/ml. Solution was stable at room temperature for 4 days. Treatment was given bid at a volume of 10 ml/kg. The final equivalent free-base dose was 60 mg/kg.

[3] = Body weight change in JAK2V617F bone marrow transplant model; conditions: sacrifice day after 21 days; Compound B 8 mg/kg ip 3 times a week, Compound A 60 mg/kg po q12h, or Combo of both
Procedure: (§2) Animals were monitored daily and sacrificed in case of major signs of distress (excessive body weight loss over more than 2 consecutive days without improvement, combined with lethargy and piloerection).
Results shown in the figures and tables represent means±SEM. Percentage change in body weights and absolute values or transformed values (log10, or other as specified) for spleen weights, reticulocyte, WBC counts, Hct and histological data were analyzed by unpaired t-test or Rank-Sum test to compare a single treatment group to vehicle group or one way ANOVA followed by Dunnett's test to compare treatment groups to vehicle group. Multiple comparisons were done using the Tukey's test. All comparisons were done on sacrifice day. The significance level was set to p<0.05. Calculations were performed using GraphPad Prism for Windows (GraphPad Software Inc.).
(§3) Mice were randomized on day 27 post BMT based on Hct values (67% in average in this experiment, N=9/group) and treated with Compound B (8 mg/kg, 3×/week MWF, i.p.) and Compound A (60 mg/kg, q12h, p.o.) as single agents or combined.

[4] = Levels post therapy, Example B (UPLC/MS-MS, blood and tissues); type: in vivo, mouse; conditions: mean, N = 9; for concentration at 2 h: Balb/c, mouse, blood, read-out: Blood level 2 hr after final dose
Procedure: as §1

[5] = test system: JAK2V617F bone marrow transduced cells; assay: JAK2V617F bone marrow transplant model of polycythemia vera-like disease (spleen weight, blood counts, GFP-positive cells)
Procedure: Briefly, Balb/c donor mice (6-8 weeks, Charles River, males or females) were treated 5 days prior BM transplant with 5-fluorouracil (150 mg/kg, i.p., Sigma-Aldrich, cat #F6627). Bone marrow cells from donor mice were harvested by flushing femurs and tibias. After red cell lysis (StemCellTechnologies, Grenoble, France, cat #07800), nucleated cells were cultured for 24 hours in transplant medium (RPMI+10% FCS+25 ng/ml IL3 (R&D Systems, Abington, UK, cat #403-ML), 25 ng/ml IL6 (R&D Systems cat #406-ML), and 50 ng/ml Stem Cell Factor (SC F, Bioconcept, Allschwill, Switzerland, cat #D-63120). The next day, cells were plated at 2×10^6cells/ml/well in 6 well plates in the presence of 1 mL of supernatant containing virions from 293T transfected with 10 μg of p-MSCV-JAK2V617F-IRES-GFP vector (modification of original vector p-MSCV vector purchased from Clontech) and 10 μg of pCL-ECO vector (Imgenex, cat #10045P). After two spin-infections (2500 rpm for 90 min at 32° C., Multifuge 1S-R, Heraeus) unselected infected BM cells were resuspended in Hank's balanced salt solution (HBSS) before cell injection (1-3×10^6 depending on infection rate) into the tail vein of lethally irradiated Balb/c female recipient mice (total 9 Gy or 7 Gy) given as two 4.5 or 3.5 Gy doses 4 hours apart) using a BIOBEAM 8000, gamma irradiator (BEBIG GmbH, Germany).
as §2
Blood was drawn from the tail vein or at sacrifice from the vena cava with a 20 G needle under isoflurane anesthesia (terminal procedure) and analyzed using an automated complete and differential blood cell counter (capillary mode using dilution 1:5 on a Sysmex blood analyzer, XT2000iV, Sysmex Digitana AG, Norderstedt, Germany). Spleens were weighed to evaluate splenomegaly. Blood, spleens, sterna, and livers were collected for pharmacokinetic, pharmacodynamic.
Ten microliters of whole blood were used to detect circulating GFP-positive cells. Briefly, blood was distributed into a 96-well round bottom plate (Costar, cat #3795) and red blood cells (RBC) were lysed with 200 μl of red blood cell lysis buffer (Sigma, cat #R-7757). After an incubation period of 7 min. in the dark on a plate agitator, cells were centrifuged (5 min., 300 g) and the supernatant discarded by inversion of the plate. After 3 washing steps in FACS buffer (phosphate buffered saline (D-PBS), 3% FBS and 0.02% sodium azide), nucleated cells were resuspended in 200 μl of cold FACS buffer and processed for GFP detection using a LSRII flow cytometer (BD Biosciences, Heidelberg, Germany).
as §3

[6] = treatment Compound A 60 mg/kg + Compound B 4 mg/kg
[7] = treatment Compound A 60 mg/kg + Compound B 8 mg/kg
[8] = treatment Compound A 60 mg/kg + Compound B 12 mg/kg
[9] = Combo Compound A (60 mg/kg) and B (8 mg/kg)
[10] = single agent: Comp'd B 8 mg/kg or Comp'd A 60 mg/kg
[11] = sacrifice day after 21 days, Compound B 8 mg/kg ip, Compound A 60 mg/kg po q12h, or Combo

Structure (SMILES) | Blood level 2 hr post-therapy [1, 6] [µM] | Liver level 2 hr post-therapy [1, 6] | Spleen level 2 hr post-therapy [1, 6] | BM level 2 hr post-therapy [1, 6] | Blood level 2 hr post-therapy [1, 7] [µM] | Liver level 2 hr post-therapy [1, 7] [nmol/g] | Spleen level 2 hr post-therapy [1, 7] [nmol/g] | BM level 2 hr post-therapy [1, 7] [nmol/g] | Blood level 2 hr post-therapy [1, 8] [µM] | Liver level 2 hr post-therapy [1, 8] [nmol/g] | Spleen level 2 hr post-therapy [1, 8] [nmol/g] | BM level 2 hr post-therapy [1, 8] [nmol/g] | BW change (%) (mean ± SEM) [3] | concentration at 2 h [4, 9] [µM] | concentration at 2 h [4, 10] [µM] | BM level 2 hr after final dose [4, 9] [nmol/g] | Liver level 2 hr after final dose [4, 9] [nmol/g] | Spleen level 2 hr after final dose [4, 9] [nmol/g] | BM level 2 hr after final dose [4, 10] [nmol/g] | Liver level 2 hr after final dose [4, 10] [nmol/g] | also measured
Cc1[nH]c2ccccc2c1CCNCc1ccc(/C=C/C(=O)NO)cc1 [Compound B, N-hydroxy-3-[4-[[[2-(2-methyl-1H-indol-3-yl)-ethyl]-amino]methyl]phenyl]-2E-2-propenamide] | 0.02 | 0.30 + nmol/g | 2.80 + nmol/g | 6.15 + nmol/g | 0.03 | 0.32 | 3.02 | 8.43 | 0.02 | 0.71 | 4.51 | 9.81 | −5% and −4.57% | 0.006 | 0.035 | 4.398 | 0.33 | 15.317 | 2.704 | 0.264 | Blood level 2 hr post-therapy ([1]; treatment Compound B 4 mg/kg): BLQ; Liver level 2 hr post-therapy ([1]; treatment Compound B 4 mg/kg): 0.18 nmol/g; Spleen level 2 hr post-therapy ([1]; treatment Compound B 4 mg/kg): 1.40 nmol/g; BM level 2 hr post-therapy ([1]; treatment Compound B 4 mg/kg): 3.34 nmol/g; Blood level 2 hr post-therapy ([1]; treatment Compound B 8 mg/kg): BLQ; Liver level 2 hr post-therapy ([1]; treatment Compound B 8 mg/kg): 0.25 nmol/g; Spleen level 2 hr post-therapy ([1]; treatment Compound B 8 mg/kg): 2.07 nmol/g; BM level 2 hr post-therapy ([1]; treatment Compound B 8 mg/kg): 3.17 nmol/g; Blood level 2 hr post-therapy ([1]; treatment Compound B 12 mg/kg): BLQ; Liver level 2 hr post-therapy ([1]; treatment Compound B 12 mg/kg): 0.63 nmol/g; Spleen level 2 hr post-therapy ([1]; treatment Compound B 12 mg/kg): 3.64 nmol/g; BM level 2 hr post-therapy ([1]; treatment Compound B 12 mg/kg): 7.32 nmol/g; Stability of solution at room temperature ([2]; lactic salt in isotonic D5W (5% Dextrose), 0.5-1.5 mg/ml): up to 10 days; Spleen level 2 hr after final dose [4, 10]: 10.045 nmol/g; Hct (%) (mean ± SEM) [5, 11]: 52.2%; Retic counts (×10^12/L) (mean ± SEM) [5, 11]: 0.24 ×10^12/L
N#CC[C@H](C1CCCC1)n1cc(-c2ncnc3[nH]ccc23)cn1 [Compound A, (R)-3-(4-(7H-pyrrolo[2,3-d]pyrimidin-4-yl)-1H-pyrazol-1-yl)-3-cyclopentylpropanenitrile] | 2.78 | 3.49 + nmol/g | 1.15 + nmol/g | 2.59 + nmol/g | 2.23 | 2.91 | 1.02 | 1.92 | 2.72 | 3.87 | 1.61 | 2.29 | 0.45% | 4.11 | 8.18 | 1.469 | 3.568 | 1.575 | 2.223 | 6.537 | Blood level 2 hr post-therapy ([1]; treatment Compound A 60 mg/kg): 1.96 µM; Liver level 2 hr post-therapy ([1]; treatment Compound A 60 mg/kg): 4.54 nmol/g; Spleen level 2 hr post-therapy ([1]; treatment Compound A 60 mg/kg): 1.28 nmol/g; BM level 2 hr post-therapy ([1]; treatment Compound A 60 mg/kg): 1.40 + nmol/g; Stability of solution at room temperature ([2]; mono-phosphate salt in 0.5% HPMC, 7.9 mg/ml): 4 days; Spleen level 2 hr after final dose [4, 10]: 2.566 nmol/g; Hct (%) (mean ± SEM) [5, 11]: 59.4%; PLT (×10^9/L) (mean ± SEM) [5, 11]: 695.9 ×10^9/L; Retic counts (×10^12/L) (mean ± SEM) [5, 11]: 0.42 ×10^12/L; WBC (×10^9/L) (mean ± SEM) ([5]; sacrifice day after 21 days, Compound B 8 mg/kg ip, Compound A 60 mg/kg po q12h, or Combo, all values): 22.2 ×10^9/L; GFP positive circulating cells (%) ([5]; sacrifice day after 21 days, allele burden surrogate, Compound B 8 mg/kg ip, Compound A 60 mg/kg po q12h, or Combo): 34.0%; WBC (×10^9/L), mean without outlier ([5]; sacrifice day, Compound A 60 mg/kg po q12h, value between brackets, 1 outlier excluded): (7.46 ×10^9/L
